{"source": "patent US10555987B2", "about": "“GHRH agonists for the treatment of ischemic disorders” (UNIVERSITY OF MIAMI, priority 2012, dated 2020)", "key": {"[1]": {"system": "myocardial infarction (Fisher-344 rats)", "experiment": "Hemodynamic analysis (pressure-volume loops), body and heart weight after MI, compared to JI-38 (Example 15, Table 16)", "assay_type": "in vivo, rat", "set-up": "key to ESP (End-Systolic Pressure) / EDP (End-Diastolic Pressure) / ESV (End-Systolic Volume) / PRSW (Preload Recruitable Stroke Work) / Ees (End-systolic Elastance) / dP/dt max (peak rate of the pressure rise) / dP/dt max_EDV / dP/dt min / TAU (relaxation time constant calculated by Weiss method) / SV (Stroke Volume) / CO (Cardiac Output) / SW (Stroke Work) / EF / Ea/Ees / Ea (arterial Elastance): ↓: downward arrow denotes lower than JI-38; ↑: upward arrow denotes greater than JI-38; =denotes same as JI-38; ⬇⬇: double arrow denotes greater effect; ⬆⬆: double arrow denotes greater effect", "conditions": "rat MI model, s.c. twice daily; pressure-volume loops; expressed in comparison to JI-38", "experimental": "Rats were anesthetized by intramuscular injection of a mixture of ketamine (100 mg/kg), xylazine (20 mg/kg) and acepromazine (10 mg/kg). A 2-F micromanometer tipped catheter (SPR-838, Millar Instruments, Houston, Tex.) was inserted into the right carotid artery and advanced retrograde into the left ventricle. Measurements were calibrated by injecting a hypertonic saline (15%) bolus to determine extra-ventricular conductance; relative volume units were converted to actual volume using the cuvette calibration method. All analyses were performed using PVAN 3.0 software (Millar Instruments, Houston, Tex.).\n(§1) Myocardial infarction (MI) was induced by permanent ligation of the left coronary artery in female 6-month-old Fisher-344 rats. Following experimental myocardial infarction (MI), rats were randomly assigned to receive either placebo, JI-38, or one of the following new analogs of GHRH: MR-30 l(P-21301), MR-303(P-21303), MR-356(P-20356), MR-502(25502), MR-350(P-20350), MR-36 l(P-20361), MR-367(P-20367), MR-403(P-27403), MR-404(P-27404), and MR-409(P-27409) (10 rats per each group). The GHRH peptide agonists were adminsistered starting 2 hours post-surgery, 1 week, 2 week, and 4 week intervals. All treatment was given subcutaneously twice daily. Cardiac performance was assessed by serial echocardiography and hemodynamic analysis derived from pressure-volume loops as described before.\nThe hemodynamic studies are shown in FIGS. 16-33 and the results are summarized in Table 16 (results were expressed in comparison to JI-38; downward arrow denotes lower than JI-38; upward arrow denotes greater than JI-38; =denotes same as JI-38; and double arrow denotes greater effect)."}, "GHRH receptor [2]": {"biological_target": "T1, GHRH receptor (Homo sapiens, UniProt Q02643)", "T1 sequence (Q02643 23-423)": "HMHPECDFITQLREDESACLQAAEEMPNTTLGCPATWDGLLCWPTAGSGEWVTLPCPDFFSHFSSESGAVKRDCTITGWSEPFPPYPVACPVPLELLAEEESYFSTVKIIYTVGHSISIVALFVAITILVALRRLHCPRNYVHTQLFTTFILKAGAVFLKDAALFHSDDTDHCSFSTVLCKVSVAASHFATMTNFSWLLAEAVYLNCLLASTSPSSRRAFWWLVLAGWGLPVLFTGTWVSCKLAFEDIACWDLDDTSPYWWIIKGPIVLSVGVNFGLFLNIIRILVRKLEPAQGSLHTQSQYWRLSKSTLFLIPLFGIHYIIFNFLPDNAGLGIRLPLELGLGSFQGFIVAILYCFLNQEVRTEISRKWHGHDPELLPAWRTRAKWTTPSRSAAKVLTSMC", "experiment": "GHRH receptor binding, competition with 125I-labeled JV-1-42, human pituitary membrane homogenates (Table 5)", "set-up": "Normal human pituitaries were purchased from the National Hormone and Peptide Program; tissue National Hormone and Peptide Program (A.F. Parlow, Harbor-UCLA Medical Center, Torrance, Calif.); host or cells: normal human pituitary, membrane fraction", "experimental": "Normal human pituitaries were purchased from the National Hormone and Peptide Program (A.F. Parlow, Los Angeles, County Harbor-UCLA Medical Center, Torrance, Calif.). Briefly, in competitive binding analysis, ^125I-labeled JV-1-42 ([…]) was displaced by GHRH agonists at 10^−6 to 10^−12 M.\nThe final binding affinities were expressed as IC50 values and were calculated by using the LIGAND PC computerized curve-fitting program of Munson and Rodbard as modified by McPherson."}, "GHRH receptor [3]": {"biological_target": "T1, GHRH receptor", "experiment": "GHRH receptor binding, competition with 125I-labeled JV-1-42, human pituitary membrane homogenates (Table 7)", "set-up": "Normal human pituitaries were purchased from the National Hormone and Peptide Program; tissue National Hormone and Peptide Program (A.F. Parlow, Harbor-UCLA Medical Center, Torrance, Calif.); host or cells: normal human pituitary, membrane fraction", "excerpt": "Normal human pituitaries were purchased from the National Hormone and Peptide Program (A.F. Parlow, Los Angeles, County Harbor-UCLA Medical Center, Torrance, Calif.)."}, "[4]": {"system": "myocardial infarction (Fisher-344 rats)", "experiment": "Serial echocardiography after MI, compared to JI-38 (Example 15, Table 15)", "assay_type": "in vivo, rat", "set-up": "key to LVEDD: Left Ventricular End Diastolic Diameter / LVESD: Left Ventricular End Systolic Diameter / VD: Ventricular Diastole / VS: Ventricular Systole / EF: Ejection Fraction / FS: Fraction Shortening: ↓: downward arrow denotes lower than JI-38; ↑: upward arrow denotes greater than JI-38; =denotes same as JI-38; ⬇⬇: double arrow denotes greater effect; ⬆⬆: double arrow denotes greater effect", "conditions": "in comparison to JI-38", "experimental": "Echocardiographic measurements were obtained at baseline, 2 days, 1, 2 and 4 weeks. Echocardiographic assessments were performed in anesthetized rats (2% isoflurane inhalation) using a Vevo-770 echocardiogram (Visual Sonics Inc., Toronto, Ontario, Canada) equipped with a 17.5-MHz transducer. Cardiac dimensions: LV end diastolic (LVEDD), end systolic (LVESD) diameters and fractional shortening (FS) were recorded from M-mode images using averaged measurements from 3 to 5 consecutive cardiac cycles according to the American Society of Echocardiography. Ejection fraction (EF) was calculated from bi-dimensional long-axis parasternal views taken through the infarcted area. All images were analyzed using Vevo 770 3.0.0 software (Visual Sonics Inc., Toronto, Ontario, Canada).\nas §1\nThe echocardiographic experiments are shown in FIGS. 10-15 and the results are summarized in Table 15 (results were expressed in comparison to JI-38; downward arrow denotes lower than JI-38; upward arrow denotes greater than JI-38; =denotes same as JI-38; and double arrow denotes greater effect)."}, "GH release": {"system": "GH release", "experiment": "In vivo endocrine activity, GH release after subcutaneous administration (Table 9)", "conditions": "rat; for GH releasing potency relative to JI-38 (=1): subcutaneous (s.c.) injection", "experimental": "Subcutaneous Administration. Adult male rats were used and anesthetized with pentobarbital (6 mg/100 g, b.w.), by i.p. injection. […] Blood samples were taken from the jugular vein 5, 15 and/or 30 minutes after the injection. The blood samples were centrifuged, plasma was removed and the GH level was measured byELISA. The results are summarized in terms of potency in Table 9."}}, "note": "Non-standard residues stand in square brackets, D forms with d. Residues, ends and D or L forms follow the SMILES beside them. *: point of attachment. Desaminotyrosyl = O=C(CCc1ccc(O)cc1)*; Agmatine = N=C(N)NCCCCN*; Nle = CCCC[C@H](N)C(=O)O; Orn = NCCC[C@H](N)C(=O)O; Abu = CC[C@H](N)C(=O)O"}
{"molecule": "CCCC[C@H](NC(=O)[C@@H](NC(=O)[C@H](CC(=O)O)NC(=O)[C@H](CCC(N)=O)NC(=O)[C@H](CC(C)C)NC(=O)[C@H](CC(C)C)NC(=O)[C@H](CCCN)NC(=O)[C@H](CCCNC(=N)N)NC(=O)[C@H](C)NC(=O)[C@H](CO)NC(=O)[C@H](CC(C)C)NC(=O)[C@H](CCC(N)=O)NC(=O)[C@H](CC)NC(=O)[C@H](CC(C)C)NC(=O)[C@@H](NC(=O)[C@H](CCCN)NC(=O)[C@H](CCCNC(=N)N)NC(=O)[C@H](Cc1ccc(O)cc1)NC(=O)[C@H](CO)NC(=O)[C@H](CCC(N)=O)NC(=O)[C@@H](NC(=O)[C@H](Cc1ccccc1)NC(=O)[C@@H](NC(=O)[C@H](C)NC(=O)[C@H](CC(=O)O)NC(=O)[C@@H](C)NC(=O)CCc1ccc(O)cc1)[C@@H](C)CC)[C@@H](C)O)C(C)C)[C@@H](C)CC)C(=O)N[C@@H](CC(=O)O)C(=O)NCCCCNC(=N)N", "note": "[Peptide P-20350, [Dat^1, D-Ala^2, Gln^8, Orn^12, Abu^15, Orn^21, Nle^27, Asp^28, Agm^29]hGHRH(1-29) NH2] (Desaminotyrosyl-[dA]DAIFTQSYR[Orn]VL[Abu]QLSAR[Orn]LLQDI[Nle]D-Agmatine)", "values": [{"measurement": "CO (Cardiac Output)", "setting": "[1]", "result": "↑"}, {"measurement": "EDP (End-Diastolic Pressure)", "setting": "[1]", "result": "↑"}, {"measurement": "EF", "setting": "[1]", "result": "↑"}, {"measurement": "ESP (End-Systolic Pressure)", "setting": "[1]", "result": "↑"}, {"measurement": "ESV (End-Systolic Volume)", "setting": "[1]", "result": "="}, {"measurement": "Ea (arterial Elastance)", "setting": "[1]", "result": "="}, {"measurement": "Ea/Ees", "setting": "[1]", "result": "="}, {"measurement": "Ees (End-systolic Elastance)", "setting": "[1]", "result": "="}, {"measurement": "PRSW (Preload Recruitable Stroke Work)", "setting": "[1]", "result": "="}, {"measurement": "SV (Stroke Volume)", "setting": "[1]", "result": "="}, {"measurement": "SW (Stroke Work)", "setting": "[1]", "result": "↓"}, {"measurement": "TAU (relaxation time constant calculated by Weiss method)", "setting": "[1]", "result": "="}, {"measurement": "dP/dt max (peak rate of the pressure rise)", "setting": "[1]", "result": "="}, {"measurement": "dP/dt max_EDV", "setting": "[1]", "result": "="}, {"measurement": "dP/dt min", "setting": "[1]", "result": "="}, {"measurement": "IC50", "setting": "GHRH receptor [2]; 125I-JV-1-42, human pituitary membranes, Table 5", "result": 0.04, "unit": "nM"}, {"measurement": "Relative affinity (Binding potency) vs GHRH", "setting": "GHRH receptor [2]; GHRH(1-29) = 1, Table 5", "result": 101.5}, {"measurement": "Relative affinity (Binding potency) vs JI-38", "setting": "GHRH receptor [2]; JI-38 = 1, Table 5", "result": 42.7}, {"measurement": "IC50", "setting": "GHRH receptor [3]; 125I-JV-1-42, human pituitary membranes, Table 7", "result": 0.52, "unit": "nM"}, {"measurement": "Relative affinity (Binding potency) vs JI-38", "setting": "GHRH receptor [3]; JI-38 = 1, Table 7", "result": 8.37}, {"measurement": "EF: Ejection Fraction", "setting": "[4]", "result": "="}, {"measurement": "FS: Fraction Shortening", "setting": "[4]", "result": "="}, {"measurement": "LVEDD: Left Ventricular End Diastolic Diameter", "setting": "[4]", "result": "↓"}, {"measurement": "LVESD: Left Ventricular End Systolic Diameter", "setting": "[4]", "result": "="}, {"measurement": "VD: Ventricular Diastole", "setting": "[4]", "result": "="}, {"measurement": "VS: Ventricular Systole", "setting": "[4]", "result": "="}, {"measurement": "Stimulation of growth hormone levels after subcutaneous administration (in words)", "setting": "GH release; s.c.", "result": "stimulated greater growth hormone levels than hGHRH or JI-38"}, {"measurement": "GH releasing potency relative to JI-38 (=1)", "setting": "GH release; 15 min after", "result": 1.53}, {"measurement": "GH releasing potency relative to JI-38 (=1)", "setting": "GH release; 30 min after", "result": 1.17}]}
